Assay results published in patent publication US8048879B2, “Substituted 4,5,6,7-tetrahydro-isoxazolo[4,5-c]pyridine compounds and use thereof for producing medicaments” (Gruenenthal GmbH, priority 2005, dated 2011).
Structures can show the parent of a compound that is named as a salt.

What was measured:
5-HT transporter = target: T1, 5-HT transporter (Rattus norvegicus, UniProt P31652); experiment: 5-HT uptake inhibition, synaptosomes from rat brain (medulla and pons); assay type: biochemical
T1 construct: from tissue; host or cells: rat brain (medulla and pons), synaptosomes, P2 fraction
Summary of the method: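 Freshly isolated rat brain synaptosomes (P2 fraction): hypothalamus for NA uptake, medulla/pons for 5-HT uptake. Uptake of [3H]-NA (7.5 min) or [3H]-5-HT (5 min) at room temperature under O2, stopped by filtration over GF/B. Retained radioactivity counted by scintillation.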

NA transporter = target: T2, NA transporter (Rattus norvegicus, UniProt Q9WTR4); experiment: Noradrenalin (NA) uptake inhibition, synaptosomes from rat brain (hypothalamus); assay type: biochemical
T2 construct: from tissue; host or cells: rat brain (hypothalamus), synaptosomes, P2 fraction
Source text: b) Method for Determining Noradrenalin and 5-HT Uptake Inhibition:
Synaptosomes from rat brain regions are freshly isolated for in vitro studies, as described in the publication “The isolation of nerve endings from brain” by E. G. Gray and V. P. Whittaker, J. Anatomy 96, pages 79-88, 1962. The corresponding literature description is hereby introduced as a reference and is deemed to be part of the disclosure.
The tissue (hypothalamus for the determination of noradrenalin uptake inhibition and medulla and pons for the determination of 5-HT uptake inhibition) is homogenised in ice-cooled 0.32 M sucrose (100 mg of tissue/1 mL) in a glass homogeniser with Teflon pestle using five complete up and down strokes at 840 revolutions/minute.
The homogenate is centrifuged at 4° C. for 10 minutes at 1000 g. After subsequent centrifugation at 17000 g for 55 minutes, the synaptosomes (P2 fraction) are obtained, which are resuspended in 0.32 M […] (0.5 mL/100 mg of original weight).
The particular uptake is measured in a 96-well microtitre plate. The volume is 250 μL and the incubation proceeds at room temperature (approx. 20-25° C.) under an O2 atmosphere.
The incubation time is 7.5 minutes for [^3H]-NA and 5 minutes for [^3H]-5-HT. The 96 samples are then filtered through a Unifilter GF/B® microtitre plate (Packard) and washed with 200 mL of incubated buffer using a “Brabdel MPXRI-96T Cell-Harvester”. The Unifilter GF/B plate is dried for 1 hour at 55° C. The plate is then sealed with a Back Seal® (Packard) and 35 μL of scintillation fluid are added per well (Ultima Gold®, Packard). After sealing with a top Seal® (Packard) and establishing an equilibrium (around 5 hours), radioactivity is determined in a “Trilux 1450 Microbeta” (Wallac).
The quantity of protein used in the above determination corresponds to the values known from the literature, as for example described in “Protein measurement with the folin phenol reagent”, Lowry et al., J. Biol. Chem., 193, 265-275, 1951.
A detailed description of the method may additionally be found in the literature, for example in M. Ch. Frink, H.-H. Hennies, W. Engelberger, M. Haurand and B. Wilffert (1996) Arzneim.-Forsch./Drug Res. 46 (III), 11, 1029-1036.
The following characteristics were determined for the NA or 5-HT transporter: […]

T1 sequence (P31652 whole entry): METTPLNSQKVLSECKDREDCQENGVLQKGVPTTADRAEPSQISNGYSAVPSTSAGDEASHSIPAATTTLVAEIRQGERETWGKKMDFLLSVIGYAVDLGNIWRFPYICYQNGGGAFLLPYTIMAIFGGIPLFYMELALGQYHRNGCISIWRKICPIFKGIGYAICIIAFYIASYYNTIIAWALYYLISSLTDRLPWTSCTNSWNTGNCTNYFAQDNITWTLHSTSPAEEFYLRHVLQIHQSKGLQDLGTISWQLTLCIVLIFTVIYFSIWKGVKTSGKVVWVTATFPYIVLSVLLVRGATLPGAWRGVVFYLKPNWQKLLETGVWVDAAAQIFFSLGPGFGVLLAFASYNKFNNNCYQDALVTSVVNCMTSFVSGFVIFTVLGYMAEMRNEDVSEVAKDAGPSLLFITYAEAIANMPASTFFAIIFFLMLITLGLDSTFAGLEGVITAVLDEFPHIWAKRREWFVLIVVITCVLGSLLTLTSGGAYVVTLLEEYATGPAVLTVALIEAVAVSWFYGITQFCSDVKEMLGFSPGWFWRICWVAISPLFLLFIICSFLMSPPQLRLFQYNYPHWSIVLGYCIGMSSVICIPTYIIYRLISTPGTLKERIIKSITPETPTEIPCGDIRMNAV
T2 sequence (Q9WTR4 1-597): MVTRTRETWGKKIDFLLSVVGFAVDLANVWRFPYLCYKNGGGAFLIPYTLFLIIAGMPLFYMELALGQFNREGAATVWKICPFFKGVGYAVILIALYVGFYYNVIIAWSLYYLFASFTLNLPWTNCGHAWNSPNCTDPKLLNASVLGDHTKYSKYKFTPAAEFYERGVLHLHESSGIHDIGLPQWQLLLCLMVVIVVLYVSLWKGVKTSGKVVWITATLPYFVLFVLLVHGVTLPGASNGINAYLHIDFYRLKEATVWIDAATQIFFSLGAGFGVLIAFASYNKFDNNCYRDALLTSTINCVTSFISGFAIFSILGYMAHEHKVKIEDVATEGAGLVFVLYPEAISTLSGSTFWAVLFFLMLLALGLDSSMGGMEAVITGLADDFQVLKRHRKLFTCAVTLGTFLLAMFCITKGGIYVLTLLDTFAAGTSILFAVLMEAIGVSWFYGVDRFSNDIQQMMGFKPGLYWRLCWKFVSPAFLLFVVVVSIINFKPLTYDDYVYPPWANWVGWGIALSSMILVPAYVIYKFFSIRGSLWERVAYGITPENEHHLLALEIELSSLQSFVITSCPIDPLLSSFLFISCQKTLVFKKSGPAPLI

Compound: CC(=O)c1ccc(N2CCN(C(=O)c3noc4c3CN(S(=O)(=O)c3ccc(C)cc3)CC4)CC2)cc1 [Example 86, 1-(4-{4-[5-(Toluene-4-sulfonyl)-4,5,6,7-tetrahydro-isoxazolo[4,5-c]pyridine-3-carbonyl]-piperazin-1-yl}-phenyl)-ethanone]
- melting point: 187.8 °C
- inhibition at 10 µM (5-HT transporter): 86%

Compound: O=C(c1noc2c1CN(S(=O)(=O)c1ccccc1)CC2)N1CCN(CC=Cc2ccccc2)CC1 [Example 97, (5-benzenesulfonyl-4,5,6,7-tetrahydro-isoxazolo[4,5-c]pyridin-3-yl)-[4-(3-phenyl-allyl)-piperazin-1-yl]-methanone]
- inhibition at 10 µM (5-HT transporter): 67%
- inhibition at 10 µM (NA transporter): 75%

Compound: O=C(NC1CCN(Cc2ccccc2)C1)c1noc2c1CN(S(=O)(=O)c1ccc(OC(F)(F)F)cc1)CC2 (stereo not shown) [Example 117, 5-(4-trifluoromethoxy-benzenesulfonyl)-4,5,6,7-tetrahydro-isoxazolo[4,5-c]pyridine-3-carboxylic acid (1-benzyl-pyrrolidin-3-yl)-amide]
- inhibition at 10 µM (5-HT transporter): 68%
- inhibition at 10 µM (NA transporter): 75%

Compound: O=C(c1noc2c1CN(S(=O)(=O)c1ccc(Cl)c(Cl)c1)CC2)N1CCN(c2nccs2)CC1 [Example 140, (5-(3,4-dichlorophenylsulfonyl)-4,5,6,7-tetrahydroisoxazolo[4,5-c]pyridin-3-yl)(4-(thiazol-2-yl)piperazin-1-yl)methanone]
- inhibition at 10 µM (5-HT transporter): 47%
- inhibition at 10 µM (NA transporter): 46%

Compound: Cc1cc(C)c(S(=O)(=O)N2CCc3onc(C(=O)N4CCN(c5nccs5)CC4)c3C2)c(C)c1 [Example 141, (5-(mesitylsulfonyl)-4,5,6,7-tetrahydroisoxazolo[4,5-c]pyridin-3-yl)(4-(thiazol-2-yl)piperazin-1-yl)methanone]
- inhibition at 10 µM (5-HT transporter): 58%
- inhibition at 10 µM (NA transporter): 41%

Compound: O=C(c1noc2c1CN(S(=O)(=O)c1cccc3ccccc13)CC2)N1CCN(c2nccs2)CC1 [Example 142, (5-(naphthalen-1-ylsulfonyl)-4,5,6,7-tetrahydroisoxazolo[4,5-c]pyridin-3-yl)(4-(thiazol-2-yl)piperazin-1-yl)methanone]
- inhibition at 10 µM (5-HT transporter): 30%
- inhibition at 10 µM (NA transporter): 31%

Compound: O=C(c1noc2c1CN(S(=O)(=O)c1ccc3ccccc3c1)CC2)N1CCN(c2nccs2)CC1 [Example 143, (5-(naphthalen-2-ylsulfonyl)-4,5,6,7-tetrahydroisoxazolo[4,5-c]pyridin-3-yl)(4-(thiazol-2-yl)piperazin-1-yl)methanone]
- inhibition at 10 µM (5-HT transporter): 29%
- inhibition at 10 µM (NA transporter): 44%

Compound: Cc1cc(C)c(S(=O)(=O)N2CCc3onc(C(=O)N4CCN(CCCN(C)C)CC4)c3C2)c(C)c1 [Example 144, (4-(3-(dimethylamino)propyl)piperazin-1-yl)(5-(mesitylsulfonyl)-4,5,6,7-tetrahydroisoxazolo[4,5-c]pyridin-3-yl)methanone dihydrochloride]
- inhibition at 10 µM (5-HT transporter): 21%
- inhibition at 10 µM (NA transporter): 24%

Compound: Cc1cc(C)c(S(=O)(=O)N2CCc3onc(C(=O)N4CCC(CCN5CCCC5)CC4)c3C2)c(C)c1 [Example 146, (5-(mesitylsulfonyl)-4,5,6,7-tetrahydroisoxazolo[4,5-c]pyridin-3-yl)(4-(2-(pyrrolidin-1-yl)ethyl)piperidin-1-yl)methanone]
- inhibition at 10 µM (5-HT transporter): 53%
- inhibition at 10 µM (NA transporter): 42%

Compound: O=C(c1noc2c1CN(S(=O)(=O)c1ccc(Cl)c(Cl)c1)CC2)N1CCC(CCN2CCCC2)CC1 [Example 147, (5-(3,4-dichlorophenylsulfonyl)-4,5,6,7-tetrahydroisoxazolo[4,5-c]pyridin-3-yl)(4-(2-(pyrrolidin-1-yl)ethyl)piperidin-1-yl)methanone]
- inhibition at 10 µM (5-HT transporter): 35%
- inhibition at 10 µM (NA transporter): 34%

Compound: O=C(c1noc2c1CN(S(=O)(=O)c1ccc3ccccc3c1)CC2)N1CCC(CCN2CCCC2)CC1 [Example 148, (5-(naphthalen-2-ylsulfonyl)-4,5,6,7-tetrahydroisoxazolo[4,5-c]pyridin-3-yl)(4-(2-(pyrrolidin-1-yl)ethyl)piperidin-1-yl)methanone]
- inhibition at 10 µM (5-HT transporter): 67%
- inhibition at 10 µM (NA transporter): 49%

Compound: Cl.O=C(c1noc2c1CN(S(=O)(=O)c1cccc3ccccc13)CC2)N1CCC(CCN2CCCC2)CC1 [Example 149, (5-(Naphthalene-1-ylsulfonyl)-4,5,6,7-tetrahydroisoxazolo[4,5-c]pyridin-3-yl)(4-(2-(pyrrolidin-1-yl)ethyl)piperidin-1-yl)methanone hydrochloride]
- inhibition at 10 µM (5-HT transporter): 68%
- inhibition at 10 µM (NA transporter): 54%

Compound: CC(NC(=O)N1CCc2onc(C(=O)NCc3ccccc3)c2C1)c1ccccc1 (stereo not shown) [Example 150, N^3-benzyl-N^5-(1-phenylethyl)-6,7-dihydroisoxazolo[4,5-c]pyridine-3,5(4H)-dicarboxamide]
- inhibition at 10 µM (5-HT transporter): 58%
- inhibition at 10 µM (NA transporter): 27%

Compound: COc1ccc(NC(=O)N2CCc3onc(C(=O)NCc4ccccc4)c3C2)cc1 [Example 151, N^3-benzyl-N^5-(4-methoxyphenyl)-6,7-dihydroisoxazolo[4,5-c]pyridine-3,5(4H)-dicarboxamide]
- inhibition at 10 µM (5-HT transporter): 36%
- inhibition at 10 µM (NA transporter): 34%

Compound: Cc1ccc(NC(=O)c2noc3c2CN(S(=O)(=O)c2ccc(C)cc2)CC3)cc1 [Example 152, N-p-tolyl-5-tosyl-4,5,6,7-tetrahydroisoxazolo[4,5-c]pyridine-3-carboxamide]
- inhibition at 10 µM (5-HT transporter): 29%
- inhibition at 10 µM (NA transporter): 24%

Compound: COCCNC(=O)c1noc2c1CN(C(=O)c1ccc(C(F)(F)F)c(F)c1)CC2 [Example 153, 5-(3-fluoro-4-(trifluoromethyl)benzoyl)-N-(2-methoxyethyl)-4,5,6,7-tetrahydroisoxazolo[4,5-c]pyridine-3-carboxamide]
- inhibition at 10 µM (5-HT transporter): 37%
- inhibition at 10 µM (NA transporter): -12%

Compound: COc1ccc(NC(=O)N2CCc3onc(C(=O)NCc4ccc(S(N)(=O)=O)cc4)c3C2)cc1 [Example 154, N^5-(4-methoxyphenyl)-N^3-(4-sulfamoylbenzyl)-6,7-dihydroisoxazolo[4,5-c]pyridine-3,5(4H)-dicarboxamide]
- inhibition at 10 µM (5-HT transporter): -8%
- inhibition at 10 µM (NA transporter): -4%

Compound: O=C(NCCN1CCCC1)c1noc2c1CN(C(=O)COc1cccc(Cl)c1)CC2 [Example 155, 5-(2-(3-chlorophenoxy)acetyl)-N-(2-(pyrrolidin-1-yl)ethyl)-4,5,6,7-tetrahydroisoxazolo[4,5-c]pyridine-3-carboxamide]
- inhibition at 10 µM (5-HT transporter): 92%
- inhibition at 10 µM (NA transporter): 70%

Compound: O=C(Nc1ccccc1)c1noc2c1CN(C(=O)c1ccccc1F)CC2 [Example 156, 5-(2-fluorobenzoyl)-N-phenyl-4,5,6,7-tetrahydroisoxazolo[4,5-c]pyridine-3-carboxamide]
- inhibition at 10 µM (5-HT transporter): 10%
- inhibition at 10 µM (NA transporter): 23%

Compound: Cc1ccc(S(=O)(=O)N2CCc3onc(C(=O)NCc4ccc(S(N)(=O)=O)cc4)c3C2)cc1 [Example 157, N-(4-sulfamoylbenzyl)-5-tosyl-4,5,6,7-tetrahydroisoxazolo[4,5-c]pyridine-3-carboxamide]
- 5-HT uptake (rat), 10 μM, % inhibition (5-HT transporter; 10 µM): 15%
- inhibition at 10 µM (NA transporter): 45%
